This is an account of results in US12139520B2 (priority 2020, dated 2024).

Numbered stars: 1 amine (or outer) side, 2 acyl side, 3 side chain; on linkers, the order of the positions; unused ones are H or OH. Bridge positions count the residues as written; N and C are the ends. Square brackets hold non-standard residues; d marks the D form. Side chains are listed from the residue outwards. Peptide text beside a SMILES is read from it. * marks the point of attachment. C20 diacid = O=C(O)CCCCCCCCCCCCCCCCCCC(=O)*; γGlu = O=C(O)[C@H](CCC(=O)[*:2])N[*:1]; Hyp = O=C(O)[C@@H]1C[C@@H](O)CN1; AEEA = NCCOCCOCC(=O)O

The target of one test is T1, hAMY3 receptor (Homo sapiens, UniProt O60896+P30988).
T1 sequence (P30988 25-474): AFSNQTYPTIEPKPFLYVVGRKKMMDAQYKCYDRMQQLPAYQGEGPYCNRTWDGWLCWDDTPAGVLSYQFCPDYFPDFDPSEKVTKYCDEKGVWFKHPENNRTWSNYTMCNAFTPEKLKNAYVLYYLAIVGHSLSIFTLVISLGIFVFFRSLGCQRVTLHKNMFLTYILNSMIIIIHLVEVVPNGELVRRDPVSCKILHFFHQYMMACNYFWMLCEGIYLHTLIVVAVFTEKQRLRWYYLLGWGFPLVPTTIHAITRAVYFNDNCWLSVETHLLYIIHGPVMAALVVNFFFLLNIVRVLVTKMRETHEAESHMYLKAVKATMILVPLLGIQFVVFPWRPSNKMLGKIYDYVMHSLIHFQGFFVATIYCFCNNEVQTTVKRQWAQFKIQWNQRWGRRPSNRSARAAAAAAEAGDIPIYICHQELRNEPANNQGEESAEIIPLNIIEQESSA
T1 sequence (O60896 24-148 partner): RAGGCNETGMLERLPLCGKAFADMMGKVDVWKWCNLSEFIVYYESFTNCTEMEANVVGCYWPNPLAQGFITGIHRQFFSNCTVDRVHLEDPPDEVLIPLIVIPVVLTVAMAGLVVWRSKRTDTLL
Nature of the test: cAMP assay for in vitro receptor activation, hAMY3-R. The test is classed as cell-based. The note with it: cAMP assay, hAMY3 receptor; read-out: hAMY3R EC50. The procedure, abridged: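 Thawed cells from a sub-cloned monoclonal hAMY3-overexpressing line are plated in DPBS containing 0.05% casein and 0.5 mM IBMX. Test compounds are added immediately at graded doses for 30 min at room temperature. Reagents for cAMP detection are then added, and TR-FRET is recorded after one hour.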

For a further test, the target named is hAM1 receptor (Homo sapiens, UniProt O60895+Q16602). Put plainly: cAMP assay for in vitro receptor activation, hAM1-R. It counts as cell-based. The note with it: cAMP assay, hAM1 receptor; read-out: hAM1R EC50. The procedure, abridged:
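cAMP accumulation was measured in a monoclonal cell line stably overexpressing the hAM1 receptor. Frozen aliquots were thawed and plated at 8000 cells/well in DPBS containing 0.05% casein and 0.5 mM IBMX.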

Chain of hAM1 receptor (Q16602 23-461): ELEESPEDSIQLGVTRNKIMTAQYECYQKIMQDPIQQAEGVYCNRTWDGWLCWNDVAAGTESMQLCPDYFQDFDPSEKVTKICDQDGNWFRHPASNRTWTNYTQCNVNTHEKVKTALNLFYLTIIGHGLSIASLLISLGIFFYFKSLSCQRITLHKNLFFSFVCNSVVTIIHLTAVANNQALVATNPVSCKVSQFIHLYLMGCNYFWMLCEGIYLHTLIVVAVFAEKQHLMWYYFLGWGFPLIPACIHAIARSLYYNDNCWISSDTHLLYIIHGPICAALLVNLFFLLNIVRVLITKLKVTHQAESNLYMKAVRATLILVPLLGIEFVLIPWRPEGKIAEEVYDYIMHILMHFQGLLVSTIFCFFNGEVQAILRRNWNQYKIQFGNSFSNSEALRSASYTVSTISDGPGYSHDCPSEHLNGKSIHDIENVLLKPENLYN
Chain of hAM1 receptor (O60895 43-175 partner): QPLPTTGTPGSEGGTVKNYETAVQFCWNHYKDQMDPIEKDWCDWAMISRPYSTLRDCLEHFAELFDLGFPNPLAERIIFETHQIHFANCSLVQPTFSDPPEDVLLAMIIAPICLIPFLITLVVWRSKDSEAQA

On to `CC[C@H](C)[C@H](NC(=O)[C@H](CCC(N)=O)NC(=O)[C@H](CCC(=O)O)NC(=O)[C@H](C)NC(=O)[C@H](CC(C)C)NC(=O)[C@H](CCCNC(=N)N)NC(=O)[C@H](C)NC(=O)[C@@H](NC(=O)[C@@H](NC(=O)[C@@H]1CSSC[C@H](NC(=O)[C@H](CCCCN)NC(=O)CC[C@H](NC(=O)CCCCCCCCCCCCCCCCCCC(=O)O)C(=O)O)C(=O)N[C@@H](CC(N)=O)C(=O)N[C@@H]([C@@H](C)O)C(=O)N[C@@H](C)C(=O)N[C@@H]([C@@H](C)O)C(=O)N1)[C@@H](C)O)C(C)C)C(=O)N[C@@H](Cc1ccc(O)cc1)C(=O)N[C@@H](CCC(N)=O)C(=O)N[C@@H](Cc1ccccc1)C(=O)N[C@H](C(=O)N[C@@H](CC(=O)O)C(=O)N[C@@H](CCCCN)C(=O)N[C@@H](CC(=O)O)C(=O)N[C@@H](CCCCN)C(=O)N[C@@H](CC(=O)O)C(=O)N1CCC[C@H]1C(=O)N[C@H](C(=O)N[C@@H](C)C(=O)N1CCC[C@H]1C(=O)N1CCC[C@H]1C(=O)N[C@H](C(=O)N[C@@H](CC(N)=O)C(=O)N[C@H](C(=O)NCC(=O)N[C@@H](CO)C(=O)N[C@@H](CC(N)=O)C(=O)NCC(=O)N1C[C@H](O)C[C@H]1C(N)=O)C(C)C)[C@@H](C)O)C(C)C)[C@@H](C)O` [compound 133] ({C20 diacid-γGlu}-KCNTATCTVARLAEQIYQFTDKDKDPVAPPTNVGSNG[Hyp]-NH2; disulfide 2-7), for which the EC50 is 0.031 nM on hAMY3 receptor and greater than 5000 nM on hAM1 receptor.
On to `CC[C@H](C)[C@H](NC(=O)[C@H](CCC(N)=O)NC(=O)[C@H](CCC(=O)O)NC(=O)[C@H](C)NC(=O)[C@H](CC(C)C)NC(=O)[C@H](CCCNC(=N)N)NC(=O)[C@H](CCC(N)=O)NC(=O)[C@@H](NC(=O)[C@@H](NC(=O)[C@@H]1CSSC[C@H](NC(=O)[C@@H](N)CCCCN)C(=O)N[C@@H](CC(N)=O)C(=O)N[C@@H]([C@@H](C)O)C(=O)N[C@@H](C)C(=O)N[C@@H]([C@@H](C)O)C(=O)N1)[C@@H](C)O)C(C)C)C(=O)N[C@@H](CCCCNC(=O)COCCOCCNC(=O)COCCOCCNC(=O)CC[C@H](NC(=O)CCCCCCCCCCCCCCCCCCC(=O)O)C(=O)O)C(=O)N[C@@H](CCC(N)=O)C(=O)N[C@@H](Cc1ccccc1)C(=O)N[C@H](C(=O)N[C@@H](CC(=O)O)C(=O)N[C@@H](CCCCN)C(=O)N[C@@H](CC(=O)O)C(=O)N[C@@H](CCCCN)C(=O)N[C@@H](CC(=O)O)C(=O)N[C@@H](CC(N)=O)C(=O)N[C@H](C(=O)N[C@@H](C)C(=O)N1CCC[C@H]1C(=O)N1CCC[C@H]1C(=O)N[C@H](C(=O)N[C@@H](CC(N)=O)C(=O)N[C@H](C(=O)NCC(=O)N[C@@H](CO)C(=O)N[C@@H](CC(N)=O)C(=O)NCC(=O)N1C[C@H](O)C[C@H]1C(N)=O)C(C)C)[C@@H](C)O)C(C)C)[C@@H](C)O` [compound 136] (H-KCNTATCTVQRLAEQIK([AEEA-AEEA-γGlu-C20 diacid])QFTDKDKDNVAPPTNVGSNG[Hyp]-NH2; disulfide 2-7; N-terminus assumed), for which the EC50 was 0.033 nM on hAMY3 receptor and greater than 5000 nM at hAM1 receptor.
Turning to `CC[C@H](C)[C@H](NC(=O)[C@H](CCC(N)=O)NC(=O)[C@H](Cc1c[nH]cn1)NC(=O)[C@H](C)NC(=O)[C@H](CC(C)C)NC(=O)[C@H](CCCNC(=N)N)NC(=O)[C@H](C)NC(=O)[C@@H](NC(=O)[C@@H](NC(=O)[C@@H]1CSSC[C@H](NC(=O)[C@H](CCCCN)NC(=O)CC[C@H](NC(=O)CCCCCCCCCCCCCCCCCCC(=O)O)C(=O)O)C(=O)N[C@@H](CC(N)=O)C(=O)N[C@@H]([C@@H](C)O)C(=O)N[C@@H](C)C(=O)N[C@@H]([C@@H](C)O)C(=O)N1)[C@@H](C)O)C(C)C)C(=O)N[C@@H](CC(N)=O)C(=O)N[C@@H](CCC(N)=O)C(=O)N[C@@H](Cc1ccccc1)C(=O)N[C@H](C(=O)N[C@@H](CC(=O)O)C(=O)N[C@@H](CCCCN)C(=O)N[C@@H](CC(=O)O)C(=O)N[C@@H](CCCCN)C(=O)N[C@@H](CC(=O)O)C(=O)N1CCC[C@H]1C(=O)N[C@H](C(=O)N[C@@H](C)C(=O)N1CCC[C@H]1C(=O)N1CCC[C@H]1C(=O)N[C@H](C(=O)N[C@@H](CC(N)=O)C(=O)N[C@H](C(=O)NCC(=O)N[C@@H](CO)C(=O)N[C@@H](CC(N)=O)C(=O)NCC(=O)N1C[C@H](O)C[C@H]1C(N)=O)C(C)C)[C@@H](C)O)C(C)C)[C@@H](C)O` [compound 137] ({C20 diacid-γGlu}-KCNTATCTVARLAHQINQFTDKDKDPVAPPTNVGSNG[Hyp]-NH2; disulfide 2-7), the EC50 is 0.034 nM at hAMY3 receptor and greater than 5000 nM at hAM1 receptor.
For `CC[C@H](C)[C@H](NC(=O)[C@H](CCC(N)=O)NC(=O)[C@H](CCC(=O)O)NC(=O)[C@H](C)NC(=O)[C@H](CC(C)C)NC(=O)[C@H](CCCNC(=N)N)NC(=O)[C@H](CCC(N)=O)NC(=O)[C@@H](NC(=O)[C@@H](NC(=O)[C@@H]1CSSC[C@H](NC(=O)[C@H](CCCCN)NC(=O)CC[C@H](NC(=O)CCCCCCCCCCCCCCCCCCC(=O)O)C(=O)O)C(=O)N[C@@H](CC(N)=O)C(=O)N[C@@H]([C@@H](C)O)C(=O)N[C@@H](C)C(=O)N[C@@H]([C@@H](C)O)C(=O)N1)[C@@H](C)O)C(C)C)C(=O)N[C@@H](C)C(=O)N[C@@H](CCC(N)=O)C(=O)N[C@@H](Cc1ccccc1)C(=O)N[C@H](C(=O)N[C@@H](CC(=O)O)C(=O)N[C@@H](CCCCN)C(=O)N[C@@H](CC(=O)O)C(=O)N[C@@H](CCCCN)C(=O)N[C@@H](CC(=O)O)C(=O)N1CCC[C@H]1C(=O)N[C@H](C(=O)N[C@@H](C)C(=O)N1CCC[C@H]1C(=O)N1CCC[C@H]1C(=O)N[C@H](C(=O)N[C@@H](CC(N)=O)C(=O)N[C@H](C(=O)NCC(=O)N[C@@H](CO)C(=O)N[C@@H](CC(N)=O)C(=O)NCC(=O)N1C[C@H](O)C[C@H]1C(N)=O)C(C)C)[C@@H](C)O)C(C)C)[C@@H](C)O` [compound 144] ({C20 diacid-γGlu}-KCNTATCTVQRLAEQIAQFTDKDKDPVAPPTNVGSNG[Hyp]-NH2; disulfide 2-7) the same measures were 0.038 nM and greater than 5000 nM.
In the case of `CC[C@H](C)[C@H](NC(=O)[C@H](C)NC(=O)CNC(=O)[C@H](Cc1ccccc1)NC(=O)[C@H](CC(N)=O)NC(=O)[C@H](CC(N)=O)NC(=O)[C@H](CO)NC(=O)[C@H](CO)NC(=O)[C@H](Cc1c[nH]cn1)NC(=O)[C@@H](NC(=O)[C@H](CC(C)C)NC(=O)[C@H](Cc1ccccc1)NC(=O)[C@H](CC(N)=O)NC(=O)[C@H](C)NC(=O)[C@H](CC(C)C)NC(=O)[C@H](CCCNC(=N)N)NC(=O)[C@H](CCC(N)=O)NC(=O)[C@@H](NC(=O)[C@H](C)NC(=O)[C@@H]1CSSC[C@H](NC(=O)[C@@H](N)CCCCN)C(=O)N[C@@H](CC(N)=O)C(=O)N[C@@H]([C@@H](C)O)C(=O)N[C@@H](C)C(=O)N[C@@H]([C@@H](C)O)C(=O)N1)[C@@H](C)O)C(C)C)C(=O)N[C@@H](CC(C)C)C(=O)N[C@@H](CO)C(=O)N[C@@H](CO)C(=O)N[C@H](C(=O)N[C@@H](CCCCN)C(=O)N[C@H](C(=O)NCC(=O)N[C@@H](CO)C(=O)N[C@@H](CC(N)=O)C(=O)NCC(=O)N[C@@H](Cc1ccc(O)cc1)C(N)=O)[C@@H](C)CC)[C@@H](C)O` [compound 148] (H-KCNTATCATQRLANFLVHSSNNFGAILSSTKIGSNGY-NH2; disulfide 2-7; N-terminus assumed), the 50% effective concentration (EC50) was 0.04 nM at hAMY3 receptor and greater than 5000 nM on hAM1 receptor.
In the same order, the values of `CC[C@H](C)[C@H](NC(=O)[C@H](C)NC(=O)CNC(=O)[C@H](Cc1ccccc1)NC(=O)[C@H](CC(N)=O)NC(=O)[C@H](CC(N)=O)NC(=O)[C@H](CO)NC(=O)[C@H](CO)NC(=O)[C@H](Cc1c[nH]cn1)NC(=O)[C@@H](NC(=O)[C@H](CC(C)C)NC(=O)[C@H](Cc1ccccc1)NC(=O)[C@H](CC(N)=O)NC(=O)[C@H](C)NC(=O)[C@H](CC(C)C)NC(=O)[C@H](CCCNC(=N)N)NC(=O)[C@H](CCC(N)=O)NC(=O)[C@@H](NC(=O)[C@H](C)NC(=O)[C@@H]1CSSC[C@H](NC(=O)[C@@H](N)CCCCN)C(=O)N[C@@H](CC(N)=O)C(=O)N[C@@H]([C@@H](C)O)C(=O)N[C@@H](C)C(=O)N[C@@H]([C@@H](C)O)C(=O)N1)[C@@H](C)O)C(C)C)C(=O)N[C@@H](CC(C)C)C(=O)N1CCC[C@H]1C(=O)N[C@@H](CO)C(=O)N[C@H](C(=O)N[C@@H](CCCCN)C(=O)N[C@H](C(=O)NCC(=O)N1CCC[C@H]1C(=O)N[C@@H](CC(N)=O)C(=O)NCC(=O)N[C@@H](Cc1ccc(O)cc1)C(N)=O)C(C)C)[C@@H](C)O` [compound 149] (H-KCNTATCATQRLANFLVHSSNNFGAILPSTKVGPNGY-NH2; disulfide 2-7; N-terminus assumed) are 0.04 nM and greater than 5000 nM.
